Source: paper PMC6162817 (Toxins, 2018)
“And” between values parts separate entries of the source, which are not always exact repeats. Equal values may be shown once. Residues, ends and D or L forms follow the SMILES beside them. No end group written: not given here.

Tests used:
[1] = biological target: RTA depurination activity on yeast ribosomes (Ricinus communis, UniProt P02879); experiment: biochemical; assay type: biochemical; settings: for IC50: Yeast Ribosome IC50
[2] = biological target: RTA depurination activity on rat liver ribosomes (Ricinus communis, UniProt P02879); experiment: biochemical; assay type: biochemical
[3] = biological target: RTA–yeast ribosome interaction (Ricinus communis, UniProt P02879); assay type: binding

Compound: CC(C)C[C@H](NC(=O)CN)C(=O)N[C@@H](Cc1ccccc1)C(=O)N[C@@H](CC(=O)O)C(=O)O [P4, G112LFD115] (H-GLFD-OH)
- IC50 [1]: 102 ± 45 µM

Compound: DDDMGFGLFD [P10]
- IC50 [2]: 83 ± 18 µM
- IC50 [1]: 7.9 ± 1.7 µM

Compound: DDMGFGLFD [P9]
- IC50 [2]: 142 ± 61 µM
- IC50 [1]: 15 ± 1.5 µM

Compound: DMGFGLFD [P8, D108MGFGLFD115]
- IC50 [2]: 267 ± 80 µM
- IC50 [1]: 23 ± 4.4 µM

Compound: FGLFD [P5, F111GLFD115]
- IC50 [1]: 121 ± 44 µM

Compound: GFGLFD [P6, G110FGLFD115]
- inhibition of ribosome binding to RTA [3]: < 100%
- IC50 [1]: 63 ± 13 µM

Compound: MGFGLFD [P7, M109GFGLFD115]
- IC50 [1]: 34 ± 9.5 µM

Compound: SDDDMGFGLFD [P11]
- IC50 [2]: 30.8 ± 6.3 µM
- Imax (maximal inhibition), rat ribosome [2]: 90% and 89.4 ± 4.2%
- Imax (maximal inhibition), yeast ribosome [1]: 90% and 89.7 ± 3.0%
- IC50 [1]: 5 µM and 4.7 µM
